“Also recorded” adds a separate entry of the source.
Experiments:
Humanthrombozyten [1] = assay: Induced aggregation of human platelets in vitro (Method 1, platelet-rich plasma, Born aggregometer); type: cell-based; conditions: result in words; Tilsuprost compared with Prostacyclin
Source text: Methode 1 - Induzierte Aggregation von Humanthrombozyten in vitro
Gesund erscheinenden männlichen und weiblichen Freiwilligen, die im vorangegangenen Zeitraum von 10 Tagen keine Medikamente eingenommen haben, wird durch vorsichtige Kanülierung der Antekubitalvene Blut entnommen, das sofort mit Natriumzitrat (ad 0,38%) stabilisiert wird. Durch 15minütiges Zentrifugieren bei 140 x g erhält man im Überstand plättchenreiches Plasma (PRP), dessen Thrombozytengehalt im Bereich 2,5 - 3,5·10⁺⁸ /ml (Coulter Counter) liegen soll. Die Plättchenaggregation wird optisch durch Messung der Lichttransmission im Born'schen Aggregometer verfolgt. Das Gesamtvolumen des Testansatzes beträgt 0,25 ml. Die Vorinkubationszeit mit dem Prüfpräparat beträgt 10 min bei 37°C, die Aggregationsinduktion erfolgt sodann mit 2 · 10⁻⁴ mol/l Arachidonsäure oder 1,7 µg/ml Kollagen. Das Prüfpräparat wird an fünf verschiedenen Spendern getestet. Aus den jeweiligen maximalen Aggregationsamplituden werden Dosis-Wirkungskurven erstellt und graphisch die arithmetisch gemittelten ED₅₀ (mol/l)-Werte bestimmt. Die Messungen erfolgen im Zeitraum von 1-6 Stunden nach Blutentnahme.

Humanthrombozyten [2] = assay: Cyclo AMP determination in human platelets (Method 3, 3H-adenine labelling); type: cell-based; conditions: result in words
Experimental: Methode 3 - Cyclo AMP-Bestimmung in Humanthrombozyten
Die Methode folgt in allen Einzelheiten der Vorschrift in Nature (London) 292 (1981) 364: Statt Kaninchenthrombozyten wurde jedoch menschliches Thrombozytenkonzentrat mit ³H-Adenin bei 20°C für 90 min inkubiert. Das überschüssige Adenin wird, wie in Nature beschrieben, entfernt, die Wirkstoffe (s. Tab. 2) zugesetzt und erneut 5 min (37°C) inkubiert. Das gebildete ³H-cyclo AMP wird in der bekannten Weise abgetrennt und durch Radioaktivitätsmessung quantifiziert.

Compound	Hemmstoffe der Aggregation von Humanthrombozyten (Humanthrombozyten [1])	cyclo AMP-Stimulierung in Humanthrombozyten (Humanthrombozyten [2])
CCCCC[C@H](O)/C=C/[C@@H]1[C@H]2C/C(=C/CCCC(=O)O)O[C@H]2C[C@H]1O [Prostacyclin, reference compound]	äquipotent	–
CCCCCC(O)C=CC1C(O)CC2N=C(SCCCCC(=O)O)CC21 (stereo not drawn) [Tilsuprost]	äquipotent	keine signifikante Stimulierung; also recorded: keine signifikante stimulierende Wirkung

Source: patent publication EP0208962B1, “Combination preparations from thrombocyte aggregation inhibitors, and their use” (HOECHST AKTIENGESELLSCHAFT, priority 1985, dated 1987)
